In one assay the test system is KB. The experiment in a line: Cytotoxicity against human KB cells. In kind it is functional, cell-based.
For another assay, the system named is L1210. The assay can be described thus: Cytotoxicity against mouse L1210 cells. In kind it is functional, cell-based.

≈ marks a conversion by molar mass, not a printed value.

IC50 data for four molecules are collected here from ChEMBL document CHEMBL1149890, “Brianodins A-D, briarane-type diterpenoids from soft coral Pachyclavularia sp” (J Nat Prod, 2008).

As usually defined, the IC50 is the concentration that inhibits the measured activity by half. Lower therefore signals inhibition by little substance.

`CC(=O)O[C@@H]1[C@H](O)[C@@H](OC(C)=O)/C(C)=C\[C@@H]2OC(=O)[C@@](C)(O)[C@@]2(O)[C@@H](OC(C)=O)[C@H]2[C@](C)(O)[C@H](OC(C)=O)C=C[C@]12C` [BRIANODIN B] came in with an IC50 in the assay on KB of over 10 µg/mL.
`CC(=O)O[C@@H]1C/C(C)=C\[C@@H]2OC(=O)[C@@](C)(O)[C@@]2(O)[C@@H](OC(C)=O)[C@H]2[C@](C)(O)[C@H](O)C=C[C@]2(C)[C@@H]1O` [BRIANODIN D] displayed a 50% inhibitory concentration (IC50) with KB of over 10 µg/mL.
Same read-out and setting: as for `CC(=O)O[C@@H]1[C@H](O)[C@@H](OC(C)=O)/C(C)=C\[C@@H]2OC(=O)[C@@](C)(O)[C@@]2(O)[C@@H](OC(C)=O)[C@H]2[C@](C)(O)[C@H](O)C=C[C@]12C` [BRIANODIN C], the figure is over 10 µg/mL.
`CC(=O)O[C@@H]1C/C(C)=C\[C@@H]2OC(=O)[C@]3(C)O[C@]23[C@@H](OC(C)=O)[C@H]2[C@](C)(O)[C@H](OC(C)=O)C=C[C@]2(C)[C@@H]1O` [BRIANODIN A]: the IC50 worked out at 1.8 µg/mL (≈ 3.44 µM) with L1210 and 4.3 µg/mL (≈ 8.23 µM) in the assay on KB.
